Measured values published in US11306092B2, “Amino indole compounds useful as TLR inhibitors” (BRISTOL-MYERS SQUIBB COMPANY, priority 2017, dated 2022).

Key:
human TLR7 = molecular target: T1, human TLR7 (Homo sapiens, UniProt Q9NYK1); test: TLR7 inhibition reporter assay (HEK-Blue SEAP reporter); format: cell-based; settings: HEK-Blue cells overexpressing human TLR7; gardiquimod 7.5 μM; 22 hour incubation
T1 construct: host or cells: HEK-Blue cells
T1 sequence (Q9NYK1 27-1049): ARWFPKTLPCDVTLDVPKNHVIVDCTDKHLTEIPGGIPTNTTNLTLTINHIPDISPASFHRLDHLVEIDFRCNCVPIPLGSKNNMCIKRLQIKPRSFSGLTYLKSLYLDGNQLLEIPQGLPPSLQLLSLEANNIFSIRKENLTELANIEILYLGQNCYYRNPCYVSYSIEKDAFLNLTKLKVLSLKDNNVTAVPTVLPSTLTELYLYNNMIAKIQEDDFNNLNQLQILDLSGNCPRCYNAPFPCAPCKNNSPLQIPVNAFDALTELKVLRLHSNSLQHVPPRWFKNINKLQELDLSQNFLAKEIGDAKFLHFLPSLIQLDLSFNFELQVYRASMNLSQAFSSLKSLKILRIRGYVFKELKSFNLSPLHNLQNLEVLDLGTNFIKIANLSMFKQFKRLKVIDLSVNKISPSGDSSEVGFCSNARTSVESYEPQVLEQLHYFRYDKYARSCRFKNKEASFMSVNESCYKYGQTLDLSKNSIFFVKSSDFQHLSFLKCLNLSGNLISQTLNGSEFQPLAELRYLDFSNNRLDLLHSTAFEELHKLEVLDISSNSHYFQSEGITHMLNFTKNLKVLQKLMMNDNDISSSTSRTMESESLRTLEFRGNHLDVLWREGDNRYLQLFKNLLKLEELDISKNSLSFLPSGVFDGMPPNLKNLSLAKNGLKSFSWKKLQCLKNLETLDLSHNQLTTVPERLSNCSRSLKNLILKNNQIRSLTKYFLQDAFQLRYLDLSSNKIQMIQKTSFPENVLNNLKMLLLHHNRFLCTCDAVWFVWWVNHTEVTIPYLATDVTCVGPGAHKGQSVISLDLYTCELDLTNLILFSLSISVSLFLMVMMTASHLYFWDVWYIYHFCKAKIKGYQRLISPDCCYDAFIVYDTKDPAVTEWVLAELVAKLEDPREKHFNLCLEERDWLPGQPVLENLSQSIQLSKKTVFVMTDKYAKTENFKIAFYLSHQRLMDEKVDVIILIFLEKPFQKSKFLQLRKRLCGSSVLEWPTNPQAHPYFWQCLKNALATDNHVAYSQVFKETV
Description: (§1) TLR7/8/9 Inhibition Reporter Assays
(§2) HEK-Blue™-cells (Invivogen) overexpressing human TLR7, TLR8 or TLR9 receptors were used for screening inhibitors of these receptors using an inducible SEAP (secreted embryonic alkaline phosphatase) reporter gene under the control of the IFN-β minimal promoter fused to five NF-κB and AP-1-binding sites. Briefly, cells are seeded into Greiner 384 well plates (15000 cells per well for TLR7, 20,000 for TLR8 and 25,000 for TLR9) and then treated with test compounds in DMSO to yield a final dose response concentration range of 0.05 nM-50 μM. After a 30 minute compound pre-treatment at room temperature, the cells are then stimulated with a TLR7 ligand (gardiquimod at a final concentration of 7.5 μM), TLR8 ligand (R848 at a final concentration of 15.9 μM) or TLR9 ligand (ODN2006 at a final concentration of 5 nM) to activate NF-κB and AP-1 which induce the production of SEAP. After a 22 hour incubation at 37° C., 5% CO2, SEAP levels are determined with the addition of HEK-Blue™ Detection reagent (Invivogen), a cell culture medium that allows for detection of SEAP, according to manufacturer's specifications. The percent inhibition is determined as the % reduction in the HEK-Blue signal present in wells treated with agonist plus DMSO alone compared to wells treated with a known inhibitor.

human TLR9 = molecular target: T2, human TLR9 (Homo sapiens, UniProt Q9NR96); test: TLR9 inhibition reporter assay (HEK-Blue SEAP reporter); format: cell-based; settings: HEK-Blue cells overexpressing human TLR9; ODN2006 5 nM; 22 hour incubation
T2 construct: host or cells: HEK-Blue cells
T2 sequence (Q9NR96 26-1032): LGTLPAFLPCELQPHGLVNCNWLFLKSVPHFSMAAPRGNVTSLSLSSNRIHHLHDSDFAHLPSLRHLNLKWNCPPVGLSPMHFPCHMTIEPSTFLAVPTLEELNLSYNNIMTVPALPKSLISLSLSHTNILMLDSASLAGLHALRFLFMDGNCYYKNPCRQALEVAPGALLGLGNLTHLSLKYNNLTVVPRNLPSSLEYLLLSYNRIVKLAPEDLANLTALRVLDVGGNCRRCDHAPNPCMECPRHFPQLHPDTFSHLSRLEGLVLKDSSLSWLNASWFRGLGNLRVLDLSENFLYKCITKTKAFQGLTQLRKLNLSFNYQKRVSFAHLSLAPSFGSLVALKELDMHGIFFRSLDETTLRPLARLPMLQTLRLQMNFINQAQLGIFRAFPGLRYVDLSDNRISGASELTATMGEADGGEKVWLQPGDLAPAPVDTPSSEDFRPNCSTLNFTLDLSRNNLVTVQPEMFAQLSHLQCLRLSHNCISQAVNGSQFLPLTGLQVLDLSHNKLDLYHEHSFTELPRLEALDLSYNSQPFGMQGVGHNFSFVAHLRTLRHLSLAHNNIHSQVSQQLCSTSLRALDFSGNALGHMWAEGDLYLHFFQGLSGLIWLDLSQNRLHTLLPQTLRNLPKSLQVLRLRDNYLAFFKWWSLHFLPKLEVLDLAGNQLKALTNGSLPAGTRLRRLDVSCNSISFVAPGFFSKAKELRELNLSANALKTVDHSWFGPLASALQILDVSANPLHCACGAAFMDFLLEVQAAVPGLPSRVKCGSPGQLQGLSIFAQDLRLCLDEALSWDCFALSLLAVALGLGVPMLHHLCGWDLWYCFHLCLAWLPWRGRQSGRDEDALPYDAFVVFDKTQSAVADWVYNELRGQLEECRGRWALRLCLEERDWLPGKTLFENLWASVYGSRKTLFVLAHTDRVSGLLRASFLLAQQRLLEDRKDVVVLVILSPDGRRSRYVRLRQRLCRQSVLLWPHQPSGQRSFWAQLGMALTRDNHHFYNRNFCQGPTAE
Description: as §1, §2

IC50 (human TLR7)	IC50 (human TLR9)	Structure (SMILES)
1130 nM	1440 nM	CNCCNC1CCC(Nc2ccc3[nH]c(-c4ccc(OC)c(OC)c4)c(C(C)C)c3c2)CC1 (single isomer, unassigned) [Example 31, N1-(2-(3,4-dimethoxyphenyl)-3-isopropyl-1H-indol-5-yl)-N4-(2-(methylamino)ethyl)cyclohexane-1,4-diamine]
221 nM	991 nM	COc1ccc(-c2[nH]c3ccc(NC4CCC(NC5CCN(C)CC5)CC4)cc3c2C(C)C)cc1OC (single isomer, unassigned) [Example 41, N1-(2-(3,4-dimethoxyphenyl)-3-isopropyl-1H-indol-5-yl)-N4-(1-methylpiperidin-4-yl)cyclohexane-1,4-diamine]
375 nM	4070 nM	COc1ccc(-c2[nH]c3ccc(NC4CCC(N5CCN(C(C)=O)CC5)CC4)cc3c2C(C)C)cc1OC (single isomer, unassigned) [Example 44, 1-(4-(4-((2-(3,4-dimethoxyphenyl)-3-isopropyl-1H-indol-5-yl)amino)cyclohexyl)piperazin-1-yl)ethan-1-one]
349 nM	1270 nM	COc1ccc(-c2[nH]c3ccc(NC4CCC(N5CCN(C(C)=O)CC5)CC4)cc3c2C(C)C)cc1OC (single isomer, unassigned) [Example 45, 1-(4-(4-((2-(3,4-dimethoxyphenyl)-3-isopropyl-1H-indol-5-yl)amino)cyclohexyl)piperazin-1-yl)ethan-1-one]
191 nM	610 nM	COc1ccc(-c2[nH]c3ccc(NC4CCC(NCCN(C)C)CC4)cc3c2C(C)C)cc1OC (stereo not drawn) [Example 32, N1-(2-(3,4-dimethoxyphenyl)-3-isopropyl-1H-indol-5-yl)-N4-(2-(dimethylamino)ethyl)cyclohexane-1,4-diamine]
136 nM	650 nM	COc1ccc(-c2[nH]c3ccc(NC4CCC(NCCN(C)C)CC4)cc3c2C(C)C)cc1OC (stereo not drawn) [Example 33, N1-(2-(3,4-dimethoxyphenyl)-3-isopropyl-1H-indol-5-yl)-N4-(2-(dimethylamino)ethyl)cyclohexane-1,4-diamine]
281 nM	769 nM	COc1ccc(-c2[nH]c3ccc(NC4CCC(N5CCN(C)CC5)CC4)cc3c2C(C)C)cc1OC (stereo not drawn) [Example 34, 2-(3,4-dimethoxyphenyl)-3-isopropyl-N-(4-(4-methylpiperazin-1-yl)cyclohexyl)-1H-indol-5-amine]
225 nM	583 nM	COc1ccc(-c2[nH]c3ccc(NC4CCC(NCCCN(C)C)CC4)cc3c2C(C)C)cc1OC (stereo not drawn) [Example 36, N1-(2-(3,4-dimethoxyphenyl)-3-isopropyl-1H-indol-5-yl)-N4-(3-(dimethylamino)propyl) cyclohexane-1,4-diamine]
171 nM	1430 nM	COc1ccc(-c2[nH]c3ccc(NC4CCC(NCCCN(C)C)CC4)cc3c2C(C)C)cc1OC (stereo not drawn) [Example 37, N1-(2-(3,4-dimethoxyphenyl)-3-isopropyl-1H-indol-5-yl)-N4-(3-(dimethylamino)propyl) cyclohexane-1,4-diamine]
450 nM	716 nM	CCN1CCN(C2CCC(Nc3ccc4[nH]c(-c5ccc(OC)c(OC)c5)c(C(C)C)c4c3)CC2)CC1 (stereo not drawn) [Example 38, 2-(3,4-dimethoxyphenyl)-N-(4-(4-ethylpiperazin-1-yl)cyclohexyl)-3-isopropyl-1H-indol-5-amine]
242 nM	1230 nM	CCN1CCN(C2CCC(Nc3ccc4[nH]c(-c5ccc(OC)c(OC)c5)c(C(C)C)c4c3)CC2)CC1 (stereo not drawn) [Example 39, 2-(3,4-dimethoxyphenyl)-N-(4-(4-ethylpiperazin-1-yl)cyclohexyl)-3-isopropyl-1H-indol-5-amine]
106 nM	1010 nM	COc1ccc(-c2[nH]c3ccc(NC4CCC(N(C)CCCN(C)C)CC4)cc3c2C(C)C)cc1OC (stereo not drawn) [Example 42, N1-(2-(3,4-dimethoxyphenyl)-3-isopropyl-1H-indol-5-yl)-N4-(3-(dimethylamino)propyl)-N4-methylcyclohexane-1,4-diamine]
252 nM	477 nM	COc1ccc(-c2[nH]c3ccc(NC4CCC(N(C)CCCN(C)C)CC4)cc3c2C(C)C)cc1OC (stereo not drawn) [Example 43, N1-(2-(3,4-dimethoxyphenyl)-3-isopropyl-1H-indol-5-yl)-N4-(3-(dimethylamino)propyl)-N4-methylcyclohexane-1,4-diamine]
1050 nM	817 nM	COc1ccc(-c2[nH]c3ccc(NC4CCC(N5CCC(N(C)C)CC5)CC4)cc3c2C(C)C)cc1OC (stereo not drawn) [Example 46, 2-(3,4-dimethoxyphenyl)-N-(4-(4-(dimethylamino)piperidin-1-yl)cyclohexyl)-3-isopropyl-H-indol-5-amine]
322 nM	1250 nM	COc1ccc(-c2[nH]c3ccc(NC4CCC(NCCN5CCOCC5)CC4)cc3c2C(C)C)cc1OC (stereo not drawn) [Example 48, N1-(2-(3,4-dimethoxyphenyl)-3-isopropyl-1H-indol-5-yl)-N4-(2-morpholinoethyl)cyclohexane-1,4-diamine]
538 nM	512 nM	COc1ccc(-c2[nH]c3ccc(NC4CCC(N5CCN(C(C)(C)C)CC5)CC4)cc3c2C(C)C)cc1OC (stereo not drawn) [Example 49, N-(4-(4-(tert-butyl)piperazin-1-yl)cyclohexyl)-2-(3,4-dimethoxyphenyl)-3-isopropyl-1H-indol-5-amine]
431 nM	561 nM	COc1ccc(-c2[nH]c3ccc(NC4CCC(N5CCN(C(C)(C)C)CC5)CC4)cc3c2C(C)C)cc1OC (stereo not drawn) [Example 50, N-(4-(4-(tert-butyl)piperazin-1-yl)cyclohexyl)-2-(3,4-dimethoxyphenyl)-3-isopropyl-1H-indol-5-amine]

Structure (SMILES)	IC50 (human TLR7)	IC50 (human TLR9)
CCc1c(-c2ccc(OC)c(OC)c2)[nH]c2ccc(N(CC)C3CCN(C4CCN(C)CC4)CC3)cc12 [Example 28, 2-(3,4-dimethoxyphenyl)-N,3-diethyl-N-(1′-methyl-1,4′-bipiperidin-4-yl)-1H-indol-5-amine]	2220 nM	627 nM
